Data taken from patent US6498945B1, “Sonodynamic therapy using an ultrasound sensitizer compound” (Amersham Health AS, priority 1997, dated 2002).
Entries after “also recorded” stand apart in the source; their conditions may differ. Where two headings read alike, the source gives them in different places. One block for each compound: values may come before it.

Tests used:
[1] = cited from earlier work
HT-29 tumors [2] = test: Biodistribution / tumor localization in immunodeficient mice with HT-29 tumors; settings: female immunodeficient mice with HT-29 tumors
Text: (§1) FIG. 2A is a graph of comparative biodistribution data of contrast agent Polymer 3 (NC100448) versus indocyanine green as control in female immunodeficient mice containing HT-29 tumors at one hour post intravenous injection of phosphate buffered saline solutions of each.
(§2) FIG. 2B is a graph of comparative biodistribution data of contrast agent Polymer 3 (NC100448) versus indocyanine green as control in female immunodeficient mice containing HT-29 tumors at three hours post intravenous injection of phosphate buffered saline solutions of each.

[3] = test system: leucocytes (white blood cells); test: Fate in dog blood (confocal scanning microscope, flow cytometry); format: in vivo; settings: injected into beagle dogs; flow cytometry and fluorescence microscopy
HT-29 tumors [4] = settings: mouse, in vivo
Text: as §1, §2

STa receptor = STa receptor (Homo sapiens, UniProt P25092); test: Competitive inhibition of the STa receptor; format: binding
STa receptor, sequence (P25092 24-1073, species assumed): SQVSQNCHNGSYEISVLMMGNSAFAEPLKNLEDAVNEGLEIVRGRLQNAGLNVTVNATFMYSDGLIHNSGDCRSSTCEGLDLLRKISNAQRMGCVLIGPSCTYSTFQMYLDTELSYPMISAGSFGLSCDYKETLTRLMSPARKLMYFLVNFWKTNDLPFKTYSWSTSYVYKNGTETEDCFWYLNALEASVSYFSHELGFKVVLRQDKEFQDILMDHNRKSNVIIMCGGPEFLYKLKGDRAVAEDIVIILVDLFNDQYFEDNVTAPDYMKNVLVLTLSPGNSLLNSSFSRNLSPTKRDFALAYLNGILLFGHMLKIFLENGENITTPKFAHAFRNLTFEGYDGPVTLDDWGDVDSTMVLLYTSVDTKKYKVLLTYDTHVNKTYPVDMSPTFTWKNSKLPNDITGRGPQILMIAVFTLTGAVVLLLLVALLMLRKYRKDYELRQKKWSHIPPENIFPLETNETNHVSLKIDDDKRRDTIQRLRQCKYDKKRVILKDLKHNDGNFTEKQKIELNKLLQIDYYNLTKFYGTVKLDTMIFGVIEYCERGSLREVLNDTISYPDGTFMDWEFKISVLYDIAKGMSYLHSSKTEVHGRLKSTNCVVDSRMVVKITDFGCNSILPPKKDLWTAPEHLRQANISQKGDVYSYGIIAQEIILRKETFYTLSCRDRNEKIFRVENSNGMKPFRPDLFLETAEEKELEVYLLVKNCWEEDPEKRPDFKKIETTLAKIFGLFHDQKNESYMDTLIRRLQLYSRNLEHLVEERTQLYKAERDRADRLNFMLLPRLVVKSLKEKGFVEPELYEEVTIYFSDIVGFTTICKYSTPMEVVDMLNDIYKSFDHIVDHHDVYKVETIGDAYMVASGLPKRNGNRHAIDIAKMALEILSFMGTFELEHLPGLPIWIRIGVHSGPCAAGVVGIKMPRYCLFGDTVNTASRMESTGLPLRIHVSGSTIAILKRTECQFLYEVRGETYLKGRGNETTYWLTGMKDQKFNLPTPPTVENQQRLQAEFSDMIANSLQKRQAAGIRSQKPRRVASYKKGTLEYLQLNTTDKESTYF
Procedure: Isolation and purification were done using the same HPLC conditions yielding about 0.1 mg yellow product. Ultra violet maxima in 1/1 water/methanol 10 mM ammonium acetate were: 202 nm (a 0.822), 277 nm (a 0.096), 457 nm (a 0.096), 482 nm (a 0.107). Mass spectrum (electrospray, negative): M−H 2359; M+Na 2381; theoretical M 2360.

[5] = test system: HL-60 human peripheral blood promyelocytic leukemia cells; test: Sonication of HL-60 cell suspensions in vitro, cell death by Trypan Blue and LDH; format: cell-based; settings: 148 nanomoles/ml, insonated 60 and 120 seconds, 65 volts, 47 kHz bath
Procedure: HL-60 human peripheral blood promyelocytic leukemia cells (American Type Culture Collection, Rockville, Md.) were grown at 37° C. in a 5% CO2/air atmosphere, in a 1:1 mixture of DMEM and IMEM fortified with 10% fetal bovine serum. Before use, the cells were centrifuged (5 min. at 1500 rpm), washed with phosphate buffered saline (PBS), and then resuspended in PBS, the volume being adjusted to provide cell suspensions containing […]. These were stored in crushed ice until used.
Viability was assessed by staining with Trypan Blue dye. 50 μl of the suspension were mixed with […] Trypan Blue solution (0.4%, Sigma), and the cell concentration counted using a Neubauer-type hemocytometer. Four or five large squares were counted, the blue (dead) cells being counted separately from the unstained (live) cells, and the results averaged. […]
For insonation, the voltage was set to the required value, the power was turned on, and the sample exposed for the required amount of time (secs.). Viability was again assessed with Trypan Blue, the samples were then centrifuged for 5 minutes at 2000 rpm, and a sample of cell free supernatant liquid taken for lactate dehydrogenase (LDH) measurement. […] The LDH was measured by a standard procedure using a Beckman Synchron CX5CE Instrument, the results were measured in IU/l, and afforded a quantitative measurement of cell death in the samples. […]

melting point: 238 to 240 °C
Compound: CCOC(=O)c1c(I)c(NS(=O)(=O)c2cccc3c(N(C)C)cccc23)c(I)c(N(CC)C(C)=O)c1I [Example 52, Ethyl 3-(N-Acetyl-N-ethylamino)-5-[(5-dimethylamino-1-naphthylsulfonyl)amino]-2,4,6-triiodobenzoate]

Compound: Oc1ccc2ccccc2c1N=Nc1ccc(N=Nc2ccccc2)cc1 [Sudan III]
solubility in sesame oil ([1]; sesame oil): soluble in sesame oil
solubility in water ([1]; water): very insoluble in water

detection in the tumor (FIG. 2A) (HT-29 tumors [2]; one hour post intravenous injection, PBS solution): negligibly detected
detection in the tumor (FIG. 2B) (HT-29 tumors [2]; three hours post intravenous injection, PBS solution): negligibly detected
Compound: CC1(C)C(/C=C/C=C/C=C/C=C2\N(CCCCS(=O)(=O)O)c3ccc4ccccc4c3C2(C)C)=[N+](CCCCS(=O)(=O)[O-])c2ccc3ccccc3c21 [indocyanine green]

Compound: Air-exposed-Tetronic-908-conjugated-to-fluorescein Isothiocyanate
binding to blood cells [3]: binds to a specific cell class within the blood; also recorded: attached to leucocytes (white blood cells)

Compound: ClAlPc(SO2NHPEG5000)4 [Example 45]
injected dose localized in the tumor after one hour (HT-29 tumors [4]): 2.5 % of the injected dose

Compound: Thiourea Linked 5-fluorescein to STa (syn. 2) [Example 79]
competitive inhibitor of the STa receptor (STa receptor): tested positive

injected dose localized in the tumor after one hour (HT-29 tumors [4]): 0.1 % of the injected dose
Compound: [Melamine][SO2ClAlPc(SO3H)3]3 [Example 46]

Compound: [NH(PEG3400)NHSO2PcAlCl(SO3H)2SO2]n [Example 43]
injected dose localized in the tumor after one hour (HT-29 tumors [4]): 4 % of the injected dose

Compound: bisthioether 2:1 dye:polymer reaction product between 2-[2-[2-chloro-3-[[1,3-dihydro-1,1,-dimethyl-3-(3-sulfopropyl)-2H-benz[e]indol-2-ylidene]ethylidene]-5-(ethoxycarbonyl)-1-cyclohexen-1-yl]ethenyl]-1,1-dimethyl-3-(3-sulfopropyl)-1H-benz[e]indolium, inner salt, sodium salt and disodium PEG3,400-α,ω-dithiolate [Polymer 3]
concentration in the blood at three hours relative to one hour (HT-29 tumors [4]): decreased
concentration in the tumor at three hours relative to one hour (HT-29 tumors [4]): increased
detection in the tumor (FIG. 2A) (HT-29 tumors [4]; iv): detected in the tumor
detection in the tumor (FIG. 2B) (HT-29 tumors [4]; iv): detected in the tumor

Compound: chloroaluminum phthalocyanine tetrasulfonate
cell killing under ultrasound (FIG. 1) [5]: Enhancement of Cell Killing

Compound: copolymer of PEG3400-α,ω-diamine and aluminum(III)phthalocyanine tetrasulfonyl chloride [Example 1]
injected dose localized in the tumor after one hour (HT-29 tumors [2]; solution in phosphate buffered saline injected, one hour): 4 % of the injected dose

Compound: copolymer of PEG 5000-α,ω-diamine and aluminum(III)phthalocyanine tetrasulfonyl chloride [Example 4]
injected dose localized in the tumor after one hour (HT-29 tumors [4]): 2.5 % of the injected dose

injected dose localized in the tumor after one hour (HT-29 tumors [4]): 0.1 % of the injected dose
Compound: copolymer of melamine and aluminum(III)phthalocyanine tetrasulfonyl chloride [Example 5]
